# Where two headings read alike, the source gives them in different places.
# Key:
# [1] = Lymphoblast assay, effects on cell growth, CEM T-cell line; assay type: cell-based; conditions: human, cem cells, AICA riboside alone, read-out: reduction in T-cell growth
# Experimental: (§1) Several lymphoblast lines were utilized in conjunction with varying doses of antiviral agents to determine their effects on cell growth. In this method a daily cell count over a period of time, post-addition of antiviral compounds, can be compared with the normal cell growth curve.
# (§2) Two representative T-cell lines, SupT-1 and CEM, and a B-cell line, WI-L2, were grown to mid-log phase 5×10^5 cells/ml in 50 ml of RPMI 1640 (Irvine Scientific) supplemented with 10% heat-inactivated fetal calf serum (Gemini-Bioproducts) and 1% glutamine (Gibco) to standardize seeding conditions and to assure a population of logarithmically growing cells.
# (§3) An appropriate number cf T-25 flasks (Corning) were seeded with evenly suspended cells at 0.5×10^5 cells/ml in 20 ml of fresh growth media. Including a control condition, each set of flasks was treated with a dose range of antiviral compound for each cell line. Each dose condition was repeated in triplicate. All flasks were incubated for 5 days at 37° C. in a 5% CO2 incubator.
# (§4) Every 24 hours for 5 days, three 0.2 ml samples of each flask were diluted in 9.8 ml of isoton (Fisher Scientific) and counted on a cell counter (Coulter Co.). The average of each flask was recorded, and the average of each triplicate antiviral does was then averaged and recorded.
# [2] = Lymphoblast assay, effects on cell growth, SupT-1 T-cell line; assay type: cell-based; conditions: human, supt-1 cells, AICA riboside alone, SUP T-1, read-out: reduction in T-cell growth
# Experimental: as §1, §2, §3, §4
# [3] = system: BAG vector pseudotyped by MA (amphotrophic murine leukemia virus); test: U937/BAG+MA colony resistance assay titered on 208F rat fibroblasts; assay type: cell-based; conditions: 500 μM AICA riboside
# Experimental: A second, similar assay system was utilized in which a human macrophage line (U937) carrying the BAG retroviral vector construct (having neomycin resistance and beta-galactosidase marker genes), Cepko, PNAS, Vol. 84, p. 156-160 (1987), was infected with MA (amphotrophic MLV [murine leukemia virus]). MA was used to pseudotype the replication-defective BAG vector, which was then titered on 208F cells. According to this assay, the results of which are shown in FIG. 1c, 0.01 μM AZT and 500 μM AICA riboside were both effective against murine retroviruses. […]
# In this colony-forming bioassay for the characterization of antiviral compounds against retroviruses, a replication-defective retroviral vector construct having the ability to confer neomycin-resistance (U937/BAG or N2) is psuedotyped, infects a single cell, and under neomycin selection, allows the recipient cell to form a colony. Since each infection yields a neomycin-resistant cell capable of producing a discrete group of cells, colonies can be counted, resulting in a linear relationship between the number of colonies and the first order of virus concentration. […]
# After drying, the plates were stained with 2 ml of 1:20 Glemsa (Sigma) for 1 hour. […] All colonies containing 50 or more cells were scored.
# HIV = HIV syncitial forming assay using SupT-1 cells; assay type: cell-based; conditions: AICA riboside 5 μM-500 μM
# Experimental: The assay was performed following the procedure described in Example Three except that SupT-1 cells were used. Using the SupT-1 cells, the medium was not changed at day 5 post-infection and the syncitia were counted at day 5 post-infection at 40X. The results are plotted in FIGS. 5, 6(b), and 7.
# SAH hydrolase = SAH hydrolase inhibition; assay type: biochemical
# Experimental: The effect of incubation time and AICA riboside concentration on SAH hydrolase activity was determined as follows. Five samples of SAH hydrolase were incubated at the following AICA riboside concentrations: 0, 10, 25, 50 and 100 μM. The incubation buffer consisted of 25 mM potassium phosphate pH 7.0, 1 mM EDTA, 1 mM, DTT and 0.04% BSA. The total enzyme added to incubation mixture was 10 μg. At indicated times, 10 μl of sample was withdrawn and assayed in the following assay system: 25 mM potassium phosphate, pH 7.0, 40 mM DL-Homocysteine, 1 mM EDTA, 1 mM DTT, 10 μM EHNA, 0.1% BSA and 10 μM U-^14 C Adenosine (590 m Ci/mmole). The reaction was stopped by adding 15 μl of 30% TCA. The samples were then centrifuged and 15 μl were removed and applied to Kodak cellulose 13254 TLC plates along with SAH and adenosine markers. The plates were then developed in a solvent system of 1-butanol:methanol:H2 O:ammonium hydroxide (60:20:20:2). The adenosine and S-adenosyl homocysteine were visualized under UV light and the spots were cut from the plate. Radioactivity of the spots was determined by liquid scintillation spectrometry. From a plot of the reciprocal of Kinactivation vs. 1/AICA riboside concentration the values of Ki (X-intercept) and Kmax (Y-intercept), were determined (FIG. 10(b)).
# [4] = system: Chinese hamster lung fibroblasts; conditions: cited from earlier work
smiles,measurement,setting,value
"NC(=O)c1ncn([C@@H]2O[C@H](CO)[C@@H](O)[C@H]2O)c1N [AICA riboside, 5-amino-1-β-D-ribofuranosyl-imidazole-4-carboxamide]",inhibition at 500 µM,[1],30 to 50%
same,inhibition at 500 µM,[2],30 to 50%
same,effectiveness against murine retroviruses,[3],effective
same,effectiveness against the AIDS virus (prevention of syncitial formation),HIV,less than 100%
same,inhibition of SAH hydrolase,SAH hydrolase,very potent inhibitors
same,inhibition of SAH hydrolase,SAH hydrolase; even at a concentration as low as 10 μM,potent inhibitors
same,expansion of the purine pool (ATP and GTP),[4]; 50 μM and 200 μM,about 40%
same,growth rate,"[4]; 50 μM and 200 μM, reversible by uridine",reduced growth rate
same,"drop in PRPP availability, measured by adenine incorporation",[4]; 50 μM,18%
same,"drop in PRPP availability, measured by adenine incorporation",[4]; 200 μM,82%
same,effect on cell growth,"[4]; 200 μM, reversed by uridine",arrested cell growth
same,cytotoxicity,[4]; 700 μM,no cytotoxicty
same,UTP and CTP pools,[4],decreased by a factor of approximately ten

# — patent publication US5132291A, “Antivirals and methods for increasing the antiviral activity of AZT” (priority 1989, dated 1992)
